Assay results from patent publication US7598260B2, “CDK-inhibitory pyrimidines, their production and use as pharmaceutical agents” (Bayer Schering Pharma Aktiengesellschaft, priority 2001, dated 2009).
Where two headings read alike, the source gives them in different places.

Tests used:
CDK2/CycE = target: T1, CDK2/CycE (Homo sapiens, UniProt P24941); experiment: CDK2/CycE kinase assay (enzyme test); format: biochemical; conditions: read-out: Inhibition IC50 [nM] CDK2/CycE
T1 construct: GST; purchased Dr. Dieter Marmé, Klinik für Tumorbiologie, Freiburg; host or cells: baculovirus-infected Sf9 insect cells
Protocol: Recombinant CDK2- and CycE-GST-fusion proteins, purified from baculovirus-infected insect cells (Sf9), are obtained by Dr. Dieter Marmé, Klinik für Tumorbiologie [Clinic for Tumor Biology], Freiburg. Histone IIIS, which is used as a kinase substrate, is purchased by the Sigma Company.
The reaction was is stopped by adding EDTA solution (250 mmol, pH 8.0, 14 μl/measuring point).
From each reaction batch, 10 μl applied to P30 filter strips (Wallac Company), and non-incorporated ^33P-ATP is removed by subjecting the filter strips to three washing cycles for 10 minutes each in 0.5% phosphoric acid. After the filter strips are dried for one hour at 70° C., the filter were are covered with scintillator strips (MeltiLex™ A, Wallac Company) and baked for one hour at 90° C. The amount of incorporated ^33P (substrate phosphorylation) is determined by scintillation measurement in a gamma-radiation measuring device (Wallac).

MCF-7 cells = experiment: Proliferation assay, crystal violet staining (cell test), MCF-7; format: cell-based; conditions: Homo sapiens
Protocol: (§1) Cultivated human tumor cells (as indicated) are flattened out at a density of 5000 cells/measuring point in a 96-hole multititer plate in 200 μl of the corresponding growth medium. After 24 hours, the cells of one plate (zero-point plate) are colored with crystal violet (see below), while the medium of the other plates is replaced by fresh culture medium (200 μl), to which the test substances are added at various concentrations (0 μm, as well as in the range of 0.01-30 μm; the final concentration of the solvent dimethyl sulfoxide is 0.5%). The cells are incubated for 4 days in the presence of test substances. The cell proliferation is determined by coloring the cells with crystal violet: the cells are fixed by adding 20 μl/measuring point of a 11% glutaric aldehyde solution for 15 minutes at room temperature. After three washing cycles of the fixed cells with water, the plates are dried at room temperature. The cells are colored by adding 100 μl/measuring point of a 0.1% crystal violet solution (pH is set at 3 by adding acetic acid). After three washing cycles of the colored cells with water, the plates are dried at room temperature. The dye is dissolved by adding 100 μl/measuring point of a 10% acetic acid solution. The extinction is determined by photometry at a wavelength of 595 nm. The change of cell growth, in percent, is calculated by standardization of the measured values to the extinction values of the zero-point plate (=0%) and the extinction of the untreated (0 μm) cells (=100%).

[1] = Solubility (Löslichkeit, g/l); format: physicochemical
[2] = system: human tumor cells (as indicated); experiment: Proliferation assay, crystal violet staining, other human tumor cells as indicated in the tables; format: cell-based; conditions: 4 days incubation
Protocol: as §1

[3] = 96 h, MCF7 cells, 4 days incubation, read-out: Proliferation IC50 [μM] MCF7
[4] = DU-145, 96 h, DU145 cells, read-out: Proliferation IC50 [μM] DU145
[5] = HCT-116, 96 h, HCT116 cells, read-out: Proliferation IC50 [μM] HCT116
[6] = MCF7, MCF-7 cells, comparison with known compounds, read-out: MCF-7 IC50
[7] = NCI-H460, 96 h, H460 cells, read-out: Proliferation IC50 [μM] H460

Row | IC50 (CDK2/CycE) [nM] | IC50 (MCF-7 cells; [3]) [µM] | Sw [1] [g/L] | Structure (SMILES) | also measured
1 | < 10 | 4 | 0.007 | NS(=O)(=O)c1ccc(Nc2ncc(Br)c(NCCN3CCOCC3)n2)cc1 [Example 8] | –
2 | 50 | > 10 | 0.044 | NS(=O)(=O)c1ccc(Nc2ncc(Br)c(NCCCC(=O)O)n2)cc1 [Example 49] | –
3 | 2000 | > 10 | – | CSc1ccc(Nc2ncc(Br)c(NCCN3CCOCC3)n2)cc1 [Example 13] | –
4 | 7 | 0.9 | – | NS(=O)(=O)c1ccc(Nc2ncc(Br)c(NC(CO)CO)n2)cc1 [Example 9] | IC50 [2, 4]: 3 µM; IC50 [2, 5]: 3 µM; IC50 (MCF-7 cells; [6]): 0.9 µM; Löslichkeit ([1]; comparison with known compounds): 0.009 g/L
5 | 200 | 3 | 0.013 | CSc1ccc(Nc2ncc(Br)c(NC(CO)CO)n2)cc1 [Example 14] | –
6 | 300 | 3 | – | C#CCNc1nc(Nc2ccc(SC)cc2)ncc1Br [Example 16, 5-Bromo-N2-(4-methylthiophenyl)-N4-2-propynyl-2,4-pyrimidine diamine] | –
7 | 150 | – | – | C#CCNc1nc(Nc2ccc(C(C)=O)cc2)ncc1Br [Example 50, 1-[4-[(5-Bromo-4-(2-propynylamino)-2-pyrimidinyl)amino]phenyl]-ethanone] | –
8 | 6 | 0.7 | 0.028 | COC[C@H](C)Nc1nc(Nc2ccc(S(N)(=O)=O)cc2)ncc1Br [Example 7] | IC50 [2, 4]: 0.5 µM; IC50 [2, 5]: 1.2 µM; IC50 [2, 7]: 1.5 µM
9 | 20 | 1 | 0.002 | C#CCOc1nc(Nc2ccc(OCC3CO3)cc2)ncc1Br (centres unmarked) [Example 40] | IC50 [2, 4]: 9 µM; IC50 [2, 5]: 3 µM; IC50 [2, 7]: 3 µM
10 | 3000 | – | – | CCOCCOCCOc1nc(Nc2ccc(C(C)=O)cc2)ncc1Br [Example 86] | –
11 | – | – | – | O=C1Cc2c([nH]c3ccc([N+](=O)[O-])cc23)-c2ccccc2N1 [Alsterpaullone, reference compound] | IC50 (MCF-7 cells; [6]): 1.2 µM
12 | 180 | 3 | – | C#CCNc1nc(Nc2ccc(SC(F)F)cc2)ncc1Br [Example 23, 5-Bromo-N2-(4-difluoromethylthiophenyl)-N4-2-propynyl-2,4-pyrimidine diamine] | –
13 | 400 | 5 | – | C#CCNc1nc(Nc2ccc(SC(F)(F)F)cc2)ncc1Br [Example 24, 5-Bromo-N4-2-propynyl-N2-(4-trifluoromethylthiophenyl)-2,4-pyrimidine diamine] | –
14 | 2000 | – | 0.001 | CCOC(=O)CCCNc1nc(Nc2ccc(C(C)=O)cc2)ncc1Br [Example 85] | –
15 | 60 | 4 | – | C#CCOc1nc(Nc2cccc(O)c2)ncc1Br [Example 20] | –
16 | 2000 | – | – | C#CCOc1nc(Nc2ccc(OCC(O)CN3CCN(c4ccccc4C#N)CC3)cc2)ncc1Br (centres unmarked) [Example 98] | –
17 | 400 | – | 0.0005 | CC(=O)c1ccc(Nc2ncc(Br)c(OCCCC(F)(F)F)n2)cc1 [Example 84] | –
18 | 6 | 0.2 | – | C#CCNc1nc(Nc2ccc(S(N)(=O)=O)cc2)ncc1Br [Example 11] | IC50 [2, 4]: 0.2 µM; IC50 [2, 5]: 0.3 µM; IC50 [2, 7]: 0.5 µM; IC50 (MCF-7 cells; [6]): 0.2 µM
19 | 70 | 8 | – | C#CCOc1nc(Nc2cccc(OCC3CO3)c2)ncc1Br (centres unmarked) [Example 51] | –
20 | 700 | – | – | Oc1ccc(Nc2ncc(Br)c(NCCN3CCOCC3)n2)cc1 [Example 2] | –
21 | 400 | – | – | C#CCOc1nc(Nc2ccc(OCC(O)CN3CCN(Cc4ccc5c(c4)OCO5)CC3)cc2)ncc1Br (centres unmarked) [Example 96] | –
22 | 300 | > 10 | 0.024 | CSc1ccc(Nc2ncc(Br)c(N[C@@H](CO)C(C)C)n2)cc1 [Example 15] | –
23 | 800 | > 10 | 0.041 | O=S(=O)(CCO)c1cccc(Nc2ncc(Br)c(NC(CO)CO)n2)c1 [Example 19] | –

Row | IC50 (CDK2/CycE) [nM] | IC50 (MCF-7 cells; [3]) [µM] | Sw [1] [g/L] | Structure (SMILES) | also measured
24 | 300 | 1.6 | 0.026 | CC(=O)c1ccc(Nc2ncc(Br)c(N[C@H](CO)C(C)C)n2)cc1 [Example 53] | –
25 | 250 | 0.8 | 0.003 | CC(=O)c1ccc(Nc2ncc(Br)c(NCCc3c[nH]cn3)n2)cc1 [Example 87] | –
26 | 90 | 10 | 0.043 | C#CCNc1nc(Nc2ccc(O)cc2)ncc1Br [Example 5, 4-[[5-Bromo-4-(2-propynylamino)-2-pyrimidinyl]amino]-phenol] | –
27 | 400 | 4 | – | COC[C@H](C)Nc1nc(Nc2ccc(SC)cc2)ncc1Br [Example 12] | –
28 | 80 | > 10 | – | C#CCNc1nc(Nc2ccc3scnc3c2)ncc1Br [Example 38, N-[5-Bromo-4-(2-propynylamino)-2-pyrimidinyl]-benzothiazole-5-amine] | –
29 | 120 | > 10 | – | C#CCNc1nc(Nc2cccc(SC(F)(F)F)c2)ncc1Br [Example 35, 5-Bromo-N4-2-propynyl-N2-(3-trifluoromethylthiophenyl)-2,4-pyrimidine diamine] | –
30 | 400 | 2 | – | C#CCNc1nc(Nc2cccc(S(=O)(=O)CCO)c2)ncc1Br [Example 21] | –
31 | 12 | 0.7 | – | NS(=O)(=O)c1ccc(Nc2ncc(Br)c(OCCCC(F)(F)F)n2)cc1 [Example 47] | IC50 [2, 4]: 0.9 µM; IC50 [2, 5]: 1.3 µM; IC50 [2, 7]: 1.8 µM
32 | 40 | 8 | 0.042 | CC(C)[C@H](CO)Nc1nc(Nc2ccc(O)cc2)ncc1Br [Example 4] | –
33 | 80 | 4 | 0.023 | CC(=O)c1ccc(Nc2ncc(Br)c(N[C@@H](CO)C(C)C)n2)cc1 [Example 56] | –
34 | – | – | – | O=C1Cc2c([nH]c3ccc(Br)cc23)-c2ccccc2N1 [Kenpaullone, reference compound] | IC50 (MCF-7 cells; [6]): 6 µM
35 | 300 | – | 0.0016 | C#CCNc1nc(Nc2ccc3c(c2)CCN3S(C)(=O)=O)ncc1Br [Example 39] | –
36 | 300 | 8 | – | COC[C@H](C)Nc1nc(Nc2ccc(O)cc2)ncc1Br [Example 1] | –
37 | 1800 | – | – | C#CCNc1nc(Nc2cccc(S(=O)(=O)NCCCC)c2)ncc1Br [Example 34] | –
38 | > 10000 | – | – | C#CCNc1nc(Nc2cccc(S(=O)(=O)C(F)(F)F)c2)ncc1Br [Example 27] | –
39 | 1000 | > 10 | 0.04 | COC[C@H](C)Nc1nc(Nc2cccc(S(=O)(=O)CCO)c2)ncc1Br [Example 17] | –
40 | – | – | – | Cn1cnc2c(NCc3ccccc3)nc(NCCO)nc21 [Olomoucine, reference compound] | IC50 (MCF-7 cells; [6]): 30 µM
41 | 300 | 3 | – | C#CCNc1nc(Nc2cccc(SC)c2)ncc1Br [Example 26] | –
42 | 7 | 2 | 0.0069 | NS(=O)(=O)c1ccc(Nc2ncc(Br)c(NCC3CC3)n2)cc1 [Example 46] | –
43 | 70 | 4 | 0.006 | C#CCNc1nc(Nc2ccc3[nH]ncc3c2)ncc1Br [Example 37, N-[5-Bromo-4-(2-propynylamino)-2-pyrimidinyl]-indazol-5-amine] | –
44 | – | – | – | CC(C)[C@H](CO)Nc1nc(Nc2cccc(Cl)c2)c2ncn(C(C)C)c2n1 [Purvalanol A, reference compound] | IC50 (MCF-7 cells; [6]): 2 µM
45 | 2000 | – | 0.039 | O=S(=O)(CCO)c1cccc(Nc2ncc(Br)c(NCCN3CCOCC3)n2)c1 [Example 18] | –
46 | 200 | 8 | 0.039 | OCC(CO)Nc1nc(Nc2ccc(O)cc2)ncc1Br [Example 3] | –

Row | Structure (SMILES) | IC50 (CDK2/CycE) [nM] | IC50 (MCF-7 cells; [3]) [µM] | Sw [1] [g/L] | also measured
47 | C#CCNc1nc(Nc2ccc(CP(=O)(OCC)OCC)cc2)ncc1Br [Example 31] | 800 | 7 | 0.0023 | –
48 | CC(C)[C@H](CO)Nc1nc(Nc2ccc(S(N)(=O)=O)cc2)ncc1Br [Example 10] | 4 | 0.2 | – | IC50 [2, 4]: 0.5 µM; IC50 [2, 5]: 0.5 µM; IC50 [2, 7]: 0.5 µM
